Experimental data taken from patent US20240391902A1, “Crystalline Form of Compound” (Shenzhen Forward Pharmaceuticals Co., Limited, priority 2020, published 2024).
“Also recorded” adds a separate entry of the source. Where two headings read alike, the source gives them in different places.

Columns and labels:
[1] = Chemical and physical stability of the salts at the end of the preparation; format: physicochemical
Description: It is crucial for drug development whether the salts obtained as above have chemical and physical stability at the end of the preparation.

[2] = Solid storage stability test; format: physicochemical; settings: for chemical and physical stability after storage: solid/25° C./60% RH/open/1 week and/or solid/60° C./closed container/1 week
Protocol: Each amorphous salt solid was weighed (two 2 mg samples were weighed for purity testing after solid storage stability study, and one 10 mg sample was weighed for XRPD testing after solid storage stability study) and placed in a glass vial. In a 25° C./60% RH solid storage stability test, the amorphous salt solid was placed in a 25° C./60% RH constant temperature and humidity chamber, and placed in the dark for 1 week (i.e. “solid/25° C./60% RH/open/1 week”), and in a 60° C. solid storage stability test, the amorphous salt solid was sealed in an oven at 60° C. and heated for 1 week in the dark (i.e. “solid/60° C./closed container/1 week”). Then the sample was taken out for purity testing, crystal form detection and appearance observation, respectively.

[3] = Solid solubility test (2 h and 24 h); format: physicochemical; settings: Test ES4: FaSSIF-V1 (pH 6.5); for Solubility measured at 2 h: 37° C., based on free base
Protocol: 5 samples were weighed for each amorphous salt solid (equivalent to 20 mg of free base), and 10 mL of the following solvents were respectively added: 0.1N HCl solution (pH 1.0), 50 mM phosphate buffer (pH 4.5), FeSSIF-V1 (pH 5.0), FaSSIF-V1 (pH 6.5) and SGF (pH 2.0), and stirred at 37° C. for 2 h. The suspension was then centrifuged at 37° C., the supernatant was measured for solubility by HPLC, and the solid fraction was measured for XRPD. The target solubility was at least 2 mg (based on free base)/mL.

[4] = Drug absorption test in male Han-Wister rats; format: in vivo; settings: for F: intragastric versus intravenous administration, doses 80, 100, 93.2, 81.1 mg/kg for Example 1, 2, 3, 4
Protocol: Intravenous administration: Three healthy male Han-Wister rats having a body weight of 250-350 g were provided by Beijing Vital River Laboratory Animal Technology Co., Ltd. The above compound of Example 1 was administered intravenously at the doses (calculated based on free base) listed in Table 1 below, respectively. Before administration and 15 min, 0.5 h, 1.0 h, 2.0 h, 4.0 h, 8.0 h, 12 h, and 24 h after administration, jugular vein puncture was performed to take 0.05 mL of blood, plasma was separated and prepared, and the drug concentration in the plasma was measured by liquid chromatography-tandem mass spectrometry (LC-MS) to obtain a drug concentration-time curve.
Intragastric administration: Twelve healthy male Han-Wister rats having a body weight of 250-350 g were provided by Beijing Vital River Laboratory Animal Technology Co., Ltd. and randomly divided into 4 groups. The above compounds of Example 1, Example 2, Example 3 and Example 4 were administered intragastrically at the doses (calculated based on free base) listed in Table 2 below, respectively. Before administration and 15 min, 0.5 h, 1.0 h, 2.0 h, 4.0 h, 8.0 h, 12 h, and 24 h after administration, jugular vein puncture was performed to take 0.05 mL of blood, plasma was separated and prepared, and the drug concentration in the plasma was measured by liquid chromatography-tandem mass spectrometry (LC-MS) to obtain a drug concentration-time curve.

[5] = Solid solubility test (2 h and 24 h); format: physicochemical; settings: for Solubility measured at 24 h: 37° C., based on free base
[6] = Test BS1: solid/25° C./60% RH/open/1 week
[7] = Test BS2: solid/60° C./closed container/1 week
[8] = intragastric administration, doses 80, 100, 93.2, 81.1 mg/kg for Example 1, 2, 3, 4 (calculated based on free base)

Compound	Color [2, 6]	Morphology (XRPD crystallinity) [2, 6]	Morphology (agglomeration, appearance) [2, 6]	Color [2, 7]	Morphology (XRPD crystallinity) [2, 7]	Morphology (agglomeration, appearance) [2, 7]	pH measured at 2 h [3]	Solubility measured at 2 h [3]	AUC0-t [4, 8]	Cmax [4, 8]	T1/2 [4, 8]	F [4]	also measured
C=CC(=O)Nc1cc(Nc2ncnc(-c3cn(C)c4ccccc34)n2)c(OC)cc1N(C)CCN(C)C [Example 13]	–	–	–	–	–	–	–	–	–	–	–	–	chemical and physical stability at the end of the preparation ([1]; listed as amorphous 2 eq. p-tosylate salt): chemically stable; also recorded: physically unstable due to caking and fusion to a glassy state upon short exposure to environmental conditions
C=CC(=O)Nc1cc(Nc2ncnc(-c3cn(C)c4ccccc34)n2)c(OC)cc1N(C)CCN(C)C [Example 3]	slight color change	amorphous (FIG. 91),	partial agglomeration	no color change	amorphous (FIG. 91),	no agglomeration	(6.1)	>2000 µg/mL	11213 ng·h/mL	1020 ng/mL	6.04 h	27.0%	chemical and physical stability after storage ([2]; listed as 2 eq. hydrochloride salt): physically unstable; chemical and physical stability after storage ([2]; listed as amorphous 2 eq. hydrochloride salt): physically unstable; physical and chemical stability (in words) ([2]; solid/25° C./60% RH/open/1 week, listed as amorphous 2 eq. hydrochloride salt): slight color change and showed a certain hygroscopicity (partial agglomeration); physical and chemical stability (in words) ([2]; solid/60° C./closed container/1 week, listed as amorphous 2 eq. hydrochloride salt): good physical and chemical stability
C=CC(=O)Nc1cc(Nc2ncnc(-c3cn(C)c4ccccc34)n2)c(OC)cc1N(C)CCN(C)C [Example 15]	–	–	–	–	–	–	–	–	–	–	–	–	chemical and physical stability at the end of the preparation ([1]; listed as amorphous sulfosalicylate salt (Sample No. Y11526-25-FD12-1,4-dioxane)): chemically and physically stable
C=CC(=O)Nc1cc(Nc2ncnc(-c3cn(C)c4ccccc34)n2)c(OC)cc1N(C)CCN(C)C [Example 2]	no color change	amorphous (FIG. 90),	no agglomeration	no color change	amorphous (FIG. 90),	no agglomeration	(6.5)	>2000 µg/mL	13060 ng·h/mL	1024 ng/mL	6.65 h	29.3%	chemical and physical stability after storage ([2]; listed as 1 eq. hydrochloride salt): chemically unstable; chemical and physical stability after storage ([2]; listed as amorphous 1 eq. hydrochloride salt): chemically unstable; physical and chemical stability (in words) ([2]; solid/25° C./60% RH/open/1 week, listed as amorphous 1 eq. hydrochloride salt): good physical and chemical stability
C=CC(=O)Nc1cc(Nc2ncnc(-c3cn(C)c4ccccc34)n2)c(OC)cc1N(C)CCN(C)C [Example 12]	–	–	–	–	–	–	–	–	–	–	–	–	chemical and physical stability at the end of the preparation ([1]; listed as amorphous sulfate salt): chemically stable; also recorded: physically unstable due to a certain hygroscopicity
C=CC(=O)Nc1cc(Nc2ncnc(-c3cn(C)c4ccccc34)n2)c(OC)cc1N(C)CCN(C)C [Example 4]	no color change	amorphous (FIG. 93),	no agglomeration	no color change	amorphous (FIG. 93),	no agglomeration	(6.5)	>2000 µg/mL	9703 ng·h/mL	1376 ng/mL	6.17 h	26.8%	chemical and physical stability after storage ([2]; listed as 1 eq. mesylate salt): chemically and physically stable; chemical and physical stability after storage ([2]; listed as amorphous 1 eq. mesylate salt): chemically and physically stable; physical and chemical stability (in words) ([2]; solid/25° C./60% RH/open/1 week, listed as amorphous 1 eq. mesylate salt): good physical and chemical stability; physical and chemical stability (in words) ([2]; solid/60° C./closed container/1 week, listed as amorphous 1 eq. mesylate salt): good physical and chemical stability; pH measured at 24 h ([5]; Test ES3: FeSSIF-VI (pH 5.0)): (5.0); Solubility measured at 24 h ([5]; Test ES3: FeSSIF-VI (pH 5.0)): >2000 µg/mL; pH measured at 24 h ([5]; Test ES4: FaSSIF-VI (pH 6.5)): (6.6); Solubility measured at 24 h ([5]; Test ES4: FaSSIF-VI (pH 6.5)): >2000 µg/mL
C=CC(=O)Nc1cc(Nc2ncnc(-c3cn(C)c4ccccc34)n2)c(OC)cc1N(C)CCN(C)C [Example 1]	no color change	amorphous (FIG. 89),	no agglomeration	no color change	medium crystallinity	–	(6.8)	>2000 µg/mL	3968 ng·h/mL	583 ng/mL	–	11.1%	physical and chemical stability (in words) ([2]; solid/25° C./60% RH/open/1 week, listed as amorphous free base): good physical and chemical stability; physical and chemical stability (in words) ([2]; solid/60° C./closed container/1 week, listed as amorphous free base): transformed from amorphous to a moderate crystallinity; half-life ([4]; male, Han-Wister, rat, plasma, iv, 1 mg/kg, intravenous administration, 1.0 mg/kg (calculated based on free base), rat plasma): 2.99 h; AUC0-t ([4]; male, Han-Wister, rat, plasma, iv, 1 mg/kg, intravenous administration, 1.0 mg/kg (calculated based on free base), rat plasma, read-out: AUC0-t): 446 ng·h/mL; Cmax ([4]; male, Han-Wister, rat, plasma, iv, 1 mg/kg, intravenous administration, 1.0 mg/kg (calculated based on free base), rat plasma, read-out: Cmax): 364 ng/mL; half-life ([4]; male, Han-Wister, rat, plasma, po, 81.1 mg/kg, intragastric administration, doses 80, 100, 93.2, 81.1 mg/kg for Example 1, 2, 3, 4 (calculated based on free base)): 3.36 h; pH measured at 24 h ([5]; Test ES3: FeSSIF-VI (pH 5.0)): (5.0); Solubility measured at 24 h ([5]; Test ES3: FeSSIF-VI (pH 5.0)): >2000 µg/mL; pH measured at 24 h ([5]; Test ES4: FaSSIF-VI (pH 6.5)): (6.8); Solubility measured at 24 h ([5]; Test ES4: FaSSIF-VI (pH 6.5)): >2000 µg/mL
C=CC(=O)Nc1cc(Nc2ncnc(-c3cn(C)c4ccccc34)n2)c(OC)cc1N(C)CCN(C)C [Example 5]	–	low crystallinity (FIG.	94), agglomeration	–	amorphous (FIG. 94),	partial agglomeration	(6.2)	–	–	–	–	–	chemical and physical stability after storage ([2]; listed as 2 eq. mesylate salt): physically unstable; chemical and physical stability after storage ([2]; listed as amorphous 2 eq. mesylate salt): physically unstable; physical and chemical stability (in words) ([2]; solid/25° C./60% RH/open/1 week, listed as amorphous 2 eq. mesylate salt): transformed from amorphous to a low crystallinity and showed a certain hygroscopicity (agglomeration); physical and chemical stability (in words) ([2]; solid/60° C./closed container/1 week, listed as amorphous 2 eq. mesylate salt): a certain hygroscopicity (partial agglomeration)
C=CC(=O)Nc1cc(Nc2ncnc(-c3cn(C)c4ccccc34)n2)c(OC)cc1N(C)CCN(C)C [Example 14]	–	–	–	–	–	–	–	–	–	–	–	–	chemical and physical stability at the end of the preparation ([1]; listed as amorphous sulfosalicylate salt (Sample No. Y11526-25-FD13-1,4-dioxane)): chemically and physically stable
